A value given as a limit tells only on which side of the number the result lay.

In data set [1] the test system is Plasmodium falciparum. Briefly: Antimalarial activity after 72 hrs against chloroquine-sensitive Plasmodium falciparum D6 infected in erythrocytes by LDH assay. Type of data set: functional, organism-based. The note with it: D6, 72 h.
The nature of data set [2]: Cytotoxicity against african green monkey Vero cells after 48 hrs by neutral red assay. The conditions noted are these: chlorocebus sabaeus, read-out: TC50. In kind it is cell-based.
A short description of data set [3]: Selectivity index, ratio of TC50 for african green monkey (Cercopithecus aethiops) Vero cells to IC50 for chloroquine-sensitive Plasmodium falciparum D6. In kind it is toxicity, cell-based.
The test system of data set [4] is Plasmodium falciparum. Kind of data set: Antimalarial activity after 72 hrs against chloroquine-resistant Plasmodium falciparum W2 infected erythrocytes by LDH assay. Type of data set: functional, organism-based. The conditions noted are these: W2, 72 h.
A short description of data set [5]: Selectivity index, ratio of TC50 for african green monkey (Cercopithecus aethiops) Vero cells to IC50 for chloroquine-resistant Plasmodium falciparum W2. Type of data set: toxicity, cell-based.
Another data set relates to Leishmania donovani. Briefly: Antileishmanial activity against Leishmania donovani promastigotes after 48 hrs by alamar-blue assay. Type of data set: functional, organism-based. In general terms: Alamar Blue is a resazurin reagent that responds to reducing activity.

As usually defined, the IC50 is the point on the concentration scale where inhibition reaches its midpoint. Regarding `C[C@H]1[C@H](O[C@H]2O[C@@H]3O[C@@]4(C)CC[C@H]5[C@H](C)CC[C@@H]([C@H]2C)[C@@]35OO4)O[C@@H]2O[C@@]3(C)CC[C@H]4[C@H](C)CC[C@@H]1[C@@]24OO3`, the IC50 is 23.6 µM with Plasmodium falciparum [1] and 25.4 µM in the data set with Plasmodium falciparum [4]. The CC50 at 48 h in data set [2] is greater than 864 µM. For the same compound, the selectivity ratio in data set [3] was greater than 37; in data set [5] it was greater than 34.

In the case of `C[C@H]1[C@@H](O[C@H]2O[C@@H]3O[C@@]4(C)CC[C@H]5[C@H](C)CC[C@@H]([C@H]2C)[C@@]35OO4)O[C@@H]2O[C@@]3(C)CC[C@H]4[C@H](C)CC[C@@H]1[C@@]24OO3`, the results for the IC50 in the data set on Plasmodium falciparum [1] and with Plasmodium falciparum [4] were 11.8 µM and 6.9 µM, respectively. Further, the CC50 at 48 h in data set [2] is greater than 864 µM. Further, the values for the selectivity ratio in data set [3] and in data set [5] were greater than 73 and greater than 125, respectively.

As usually defined, the IC90 is the concentration at which the effect reaches the 90% level. As for `C[C@@H]1[C@H](O)[C@@H](C)/C=C/C=C/C=C/C=C/C=C/C=C/C=C/[C@H](O[C@@H]2O[C@H](C)[C@@H](O)[C@H](N)[C@@H]2O)C[C@@H]2O[C@](O)(C[C@@H](O)C[C@@H](O)[C@H](O)CC[C@@H](O)C[C@@H](O)CC(=O)O[C@H]1C)C[C@H](O)[C@H]2C(=O)O` [AMPHOTERICIN B], in the data set on Leishmania donovani, the IC50 came out at 0.1 µM and the IC90 was found to be 0.2 µM.

Consider `C[C@@H]1CC[C@H]2[C@@H](C)C(=O)O[C@@H]3O[C@@]4(C)CC[C@@H]1[C@]32OO4` [ARTEMISININ], for which the CC50 at 48 h in data set [2] is greater than 1690 µM. Besides, the selectivity ratio was greater than 170 in data set [3] and greater than 106 in data set [5].

In the data set on Leishmania donovani, `N=C(N)c1ccc(OCCCCCOc2ccc(C(=N)N)cc2)cc1` [PENTAMIDINE] gave an IC50 of 3.5 µM and an IC90 of 14.7 µM.

The values above are taken from ChEMBL document CHEMBL1140860, “Synthesis and evaluation of dihydroartemisinin and dihydroartemisitene acetal dimers showing anticancer and antiprotozoal activity” (Bioorg Med Chem, 2009).
